Results: patent US12594349B2, “Compositions and methods for the targeting of PCSK9” (Scribe Therapeutics Inc., priority 2022, dated 2026)

Test system: human PCSK9 locus
Assay: Secreted PCSK9 by ELISA in Huh7 cells transfected with mRNA and gRNA
Format: cell-based
Settings: for Percent reduction in PCSK9 secretion / Average percent reduction in PCSK9 secretion / Secreted PCSK9: Huh7 cells; for Percent reduction in PCSK9 secretion / Average percent reduction in PCSK9 secretion: LTRP5-ADD-ZIM3 mRNA; for Percent reduction in PCSK9 secretion: day 6, relative to non-targeting gRNA control; for Average percent reduction in PCSK9 secretion: day 6, averaged from the two doses; for Secreted PCSK9: 6 days post-transfection, normalized to total cell count
Experimental: To assess PCSK9 secretion, seeded Huh7 cells were transfected with mRNA encoding a catalytically-active CasX 676, dXR1, or LTRP5-ADD-ZIM3 and a gRNA with scaffold 316 and spacer targeting either the B2M or PCSK9 locus. Media supernatant was harvested at 6, 18, 36, and 87 days post-transfection to assess level of PCSK9 secretion by ELISA. Levels of PCSK9 secretion were normalized to total cell count. As an additional control, PCSK9 secretion was also measured in the media supernatant harvested from wells containing untreated, naïve cells.
The following three human hepatocyte cancer cell lines were used in this experiment: HepG2 cells, Hep3B cells, and Huh7 cells. ˜15,000 cells of each cell line were seeded per well; the next day, seeded cells were transfected with mRNA encoding a catalytically-active CasX 676, dXR1, or LTRP5-ADD-ZIM3 and a gRNA with scaffold 316 and spacer targeting either the B2M or PCSK9 locus (see Table 23 for specific spacers and sequences). Media supernatant was harvested at 4 days post-transfection to assess level of PCSK9 secretion by ELISA, and levels of PCSK9 secretion were normalized to total cell count and illustrated in FIGS. 11A-11C. Culturing of treated Huh7 cells continued, and media supernatant was harvested at 14 and 27 days post-transfection for measuring PCSK9 secretion by ELISA. As an additional experimental control, PCSK9 secretion was also measured in the media supernatant harvested from wells containing untreated, naïve cells.
To assess PCSK9 secretion, seeded Huh7 cells were co-transfected with mRNA encoding for LTRP5-ADD-ZIM3 and a gRNA with scaffold 316 and spacer targeting the PCSK9 locus using Lipofectamine™ 3000. Two doses of total RNA input at a 2:1 mass ratio of mRNA to gRNA were used for screening: 50 ng mRNA:25 ng gRNA and 25 ng mRNA:12.5 ng gRNA. Media supernatant was harvested at 6 days post-transfection to assess level of PCSK9 secretion by ELISA (Table 74). Levels of PCSK9 secretion were normalized to total cell count. As an additional control, PCSK9 secretion was also measured in the media supernatant harvested from cells transfected with mRNA encoding for mScarlet.

[1] = LTRP5-ADD-ZIM3 mRNA + gRNA scaffold 316, 25 ng mRNA:12.5 ng gRNA
[2] = LTRP5-ADD-ZIM3 mRNA + gRNA scaffold 316, 50 ng mRNA:25 ng gRNA

Substance | Percent reduction in PCSK9 secretion (25 ng mRNA:12.5 ng gRNA) | Percent reduction in PCSK9 secretion (50 ng mRNA:25 ng gRNA) | Average percent reduction in PCSK9 secretion | Secreted PCSK9 [1] | Secreted PCSK9 [2] | average reduction in secreted PCSK9 levels (Huh7, LTRP5-ADD-ZIM3 mRNA + gRNA scaffold 316 v1, 6 days post-transfection, averaged from two doses, relative to non-targeting gRNA)
Non-targeting (guide CGAGACGTAATTACGTCTCG; chemistry not given here) | 0% | 0% | 0% |  |  | 
TG-06-002 (guide ACCGCUGCGCCAAGGUGCGG; listed as RNA, chemistry not given here) |  | 0.4% |  |  |  | 
TG-06-004 (guide GCCAGGCCGUCCUCCUCGGA; listed as RNA, chemistry not given here) | 2.54% | 33.35% | 15.41% | 73.05 ng/mL | 54.83 ng/mL | 
TG-06-005 (guide GUGCUCGGGUGCUUCGGCCA; listed as RNA, chemistry not given here) | 7.19% | 18.47% | 5.64% | 76.37 ng/mL | 67.08 ng/mL | 
TG-06-117 (guide ACUUUGUUUGCAAAGACCUC; listed as RNA, chemistry not given here) | 37.62% | 16.16% | 10.73% | 98.05 ng/mL | 68.98 ng/mL | 
TG-06-118 (guide GAGUGAAAUGGCCUGCUCUG; listed as RNA, chemistry not given here) | 23.11% | 56.86% | 39.99% | 54.78 ng/mL | 35.5 ng/mL | 
TG-06-119 (guide GAGCAGGCCAUUUCACUCGG; listed as RNA, chemistry not given here) | 18.66% | 14.47% | 2.1% | 84.54 ng/mL | 70.37 ng/mL | 
TG-06-120 (guide CUCGGAAUCUGCUGUGCAUC; listed as RNA, chemistry not given here) | 32.67% | 73.95% | 53.31% | 47.97 ng/mL | 21.43 ng/mL | 
TG-06-121 (guide GGAAGGGCUGUCGAUACUGG; listed as RNA, chemistry not given here) | 47.89% | 65.57% | 56.73% | 37.13 ng/mL | 28.33 ng/mL | 
TG-06-122 (guide CCUUUGUUUCUUCCCAGUAU; listed as RNA, chemistry not given here) | 20.79% | 3.54% | 8.63% | 86.06 ng/mL | 79.36 ng/mL | 
TG-06-123 (guide UCCCAGUAUCGACAGCCCUU; listed as RNA, chemistry not given here) | 27.97% | 62.95% | 45.46% | 51.32 ng/mL | 30.49 ng/mL | 
TG-06-124 (guide CAGUAUCGACAGCCCUUCCA; listed as RNA, chemistry not given here) | 57.06% | 79.9% | 68.48% | 30.59 ng/mL | 16.54 ng/mL | 
TG-06-125 (guide AGAAAGAGCAAGCCUCAUGU; listed as RNA, chemistry not given here) | 35.28% | 69.7% | 52.49% | 46.11 ng/mL | 24.93 ng/mL | 
TG-06-126 (guide CCUUUUCAUCCUCCUGCCUG; listed as RNA, chemistry not given here) | 37.09% | 71.46% | 54.27% | 44.82 ng/mL | 23.48 ng/mL | 
TG-06-127 (guide UCCUCCUGCCUGGUACACAA; listed as RNA, chemistry not given here) | 31.08% | 72.56% | 51.82% | 49.1 ng/mL | 22.57 ng/mL | 
TG-06-128 (guide AGAAAUCAACUGGACAAGCA; listed as RNA, chemistry not given here) | 12.57% | 48.7% | 30.63% | 62.29 ng/mL | 42.21 ng/mL | 
TG-06-129 (guide UUUUACACACCAUGUUCAAG; listed as RNA, chemistry not given here) | 27.47% | 27.16% | 0.16% | 90.82 ng/mL | 59.93 ng/mL | 
TG-06-131 (guide UGAACAUGGUGUGUAAAAGG; listed as RNA, chemistry not given here) | 18.74% | 65.48% | 42.11% | 57.89 ng/mL | 28.4 ng/mL | 
TG-06-132 (guide AGAAGAUUCAAUUUGCAAAG; listed as RNA, chemistry not given here) | 5.29% | 31.11% | 12.91% | 75.01 ng/mL | 56.68 ng/mL | 
TG-06-134 (guide GAAUUCUAUGGUAGGCACAA; listed as RNA, chemistry not given here) | 19.37% | 46.77% | 33.07% | 57.45 ng/mL | 43.79 ng/mL | 
TG-06-135 (guide GGAAAGCUGAGCUUGUGCCU; listed as RNA, chemistry not given here) | 37.42% | 68.82% | 53.12% | 44.59 ng/mL | 25.66 ng/mL | 
TG-06-139 (guide AGGAGCAGCUAGUUGGUAAG; listed as RNA, chemistry not given here) | 64.28% | 81.73% | 73.01% | 25.45 ng/mL | 15.03 ng/mL | 
TG-06-140 (guide AAACUUAGCCUGGACCCCCU; listed as RNA, chemistry not given here) | 15.87% | 25.04% | 20.45% | 59.94 ng/mL | 61.68 ng/mL | 
TG-06-141 (guide ACUGGCCUUAACCUGGCAGC; listed as RNA, chemistry not given here) | 82.34% | 83.16% | 82.75% | 12.58 ng/mL | 13.86 ng/mL | 82.75%
TG-06-142 (guide UUCCACUGGCCUUAACCUGG; listed as RNA, chemistry not given here) | 61.73% | 62.48% | 62.1% | 27.27 ng/mL | 30.87 ng/mL | 
